What all share (assay type): physicochemical
Data set [1] can be described thus: Discoloration of compositions associated with oxidation of hydroquinone (general statement). As to conditions: compositions containing hydroquinone.
Data set [2] in a line: Discoloration of hydroquinone solutions with stabilizer in various solvents after storage. As to conditions: hydroquinone solutions in various solvents (ethanol absolute, 40-B, 40-2, 3A), glass vials, four weeks at 45° C., FIGS. 2A-D. The protocol:
FIGS. 2A-D are photographs of containers of various compositions, each comprising 0.1% benzophenone-4 in 100 ml of various solvents, after storage for four weeks at 45° C. In another set of experiments, solutions containing […] in various solvents (as shown below) were prepared, and then stored in glass vials for four weeks at 45° C.

A short description of data set [3]: Discoloration of 1% hydroquinone solutions in SDA 40-2 ethanol with 0.1% stabilizer after storage. As to conditions: hydroquinone 1% w/w in 200-proof ethanol SDA grade 40-2, 0.1% w/w stabilizer, glass vials, 4 weeks at 45° C., FIG. 1. Here is the method:
FIG. 1 is a photograph of containers of various compositions, each comprising 1% hydroquinone, 0.1% of various stabilizers, in a vehicle of SDA grade 40-2 ethanol. Solutions of hydroquinone (1% w/w), in 200-proof ethanol (SDA grade 40-2, which includes brucine sulfate as a denaturant) with 0.1% w/w of various compounds, namely BHT, benzophenone-3, ascorbic acid, Tinogard HS, Tinogard TT, Tinogard Q, benzophenone-4, Tinogard TT DD and ascorbyl glucoside were prepared, and then stored in glass vials for 4 weeks at 45° C. The results of the experiments are illustrated in FIG. 1.

As to `CC1(C)C2CCC1(CS(=O)(=O)O)C(=O)/C2=C/c1ccc(/C=C2/C(=O)C3(CS(=O)(=O)O)CCC2C3(C)C)cc1` [Mexoryl SX, tetraphthalylidene dicamphor sulfonic acid], the “discoloration of compositions associated with oxidation of hydroquinone” value in data set [1] is recorded as “inhibit or reduce discoloration”. Also, in data set [2], the “discoloration of the solutions” value is “substantially no discoloration”.
Take `COc1cc(O)c(C(=O)c2ccccc2)cc1S(=O)(=O)O` [benzophenone-4, 5-Benzoyl-4-Hydroxy-2-Methoxybenzene Sulfonic Acid]: in data set [1], the “discoloration of compositions associated with oxidation of hydroquinone” value is on record as “inhibit or reduce discoloration”. The “discoloration of the solution” value in data set [3] is “substantially no discoloration”. The “discoloration of the solutions” value in data set [2] is on record as “substantially no discoloration”.
